In US20250057158A1 (priority 2021, published 2025):
Like-named read-outs stand apart in the source and are kept apart here.

Legend:
[1] = tested on: Pseudomonas syringae pv. tomato DC3000 (Pst); assay type: in vivo; conditions: Arabidopsis thaliana; for induced resistance against Pst (disease severity, statistical significance vs water-treated control): 50 μl of 0.1% amino acid to roots, Pst 7 days later, severity 7 days after pathogen; for disease severity (score 0 to 5): water-treated group 4.6
Pst pathogen = assay type: in vivo, Pseudomonas syringae pv. tomato; conditions: Arabidopsis thaliana; 0.1% amino acid; day 6 after Pst
[2] = tested on: Pathogenesis-related protein (PR) 1a promoter GUS fusion construct; test: Expression of disease resistance marker gene PR1a through GUS activity; assay type: in vivo, Arabidopsis thaliana; conditions: roots treated with 50 μl; observed 1 Dai to 4 Dai after pathogen treatment
Phytophthora sojae = test: Pot experiment, soybean Phytophthora stem and root rot (diseased area, control value); assay type: in vivo; conditions: diseased area after 3 days, vs untreated group
[3] = tested on: Pseudomonas syringae pv. lachrymans; test: Pot experiment, cucumber bacterial leaf blight (diseased area, control value); assay type: in vivo; conditions: 5 ml spray (amino acid 0.1%) one day before inoculation, diseased area after 3 days, vs untreated group
[4] = tested on: Pectobacterium carotovorum pv. carotovora; test: Pot experiment, lettuce bacterial soft rot (diseased area, control value); assay type: in vivo; conditions: diseased area after 1 day, vs untreated group
[5] = tested on: Magnaporthe oryzae KI-1113a; assay type: in vivo; conditions: pot; 5 ml spray (amino acid 0.1%) one day before inoculation; diseased area after 24 h dark plus 4 days; vs untreated group
soybeans = test: Growth promoting ability, shoot weight of soybeans; assay type: in vivo, soybean; conditions: untreated group 8.6 g; for shoot weight, soybeans (average): root zone treatment twice at one week intervals (valine 5 ml, 0.1%), two weeks after last treatment
Method: (§1) The growth of soybeans and cucumbers was observed by treatment with valine. One week after sowing in pots, root zone treatment of each plant was performed using 5 ml of valine at a concentration of 0.1%. The root zone treatment with valine was performed twice at one week intervals. Two weeks after the last treatment, a shoot of each treatment group was cut and weighed.

cucumbers = test: Growth promoting ability, shoot weight of cucumbers; assay type: in vivo, cucumber; conditions: untreated group 31 g; for shoot weight, cucumbers (average): root zone treatment twice at one week intervals (valine 5 ml, 0.1%), two weeks after last treatment
Method: as §1

Pcc pathogen = conditions: Arabidopsis thaliana; 0.1% amino acid; day 3 after Pcc
[6] = tested on: lettuce bacterial soft rot (Pectobacterium carotovorum pv. carotovora); test: Optimal conditions, two treatments: lettuce bacterial soft rot (disease severity, control value); conditions: treatment 7 days and 1 day before pathogen; for disease severity (score 0 to 5), lettuce bacterial soft rot: 48 hours after pathogen, water control group 4.2; for control value, lettuce bacterial soft rot: from disease severity, vs untreated group
Method: (§2) A total of 3 crops (soybean, cucumber, lettuce) were tested against 3 pathogens (soybean Phytophthora stem and root rot, cucumber bacterial leaf blight, lettuce bacterial soft rot), and each plant was prepared in the same manner as Example 5.
(§3) From the disease severity investigated in this manner, a control value was calculated according to the following Equation.

[7] = tested on: Soybean Phytophthora stem and root rot; conditions: 7 days after disease treatment, NDVI 0.7 or more = healthy, untreated group 26%
Method: The induced resistance against Soybean Phytophthora stem and root rot was investigated using a hyperspectral camera and a visible light band camera. Plant preparation was carried out in the same manner as in Example 6, and 7 days after disease treatment, leaves were picked from the same position in each treatment group, and hyperspectral photographs were taken.
It was quantified by the normalized difference vegetation index (NDVI). The degree of diseased leaves in the entire leaf area was indicated from 0.1 to 0.9 and the number of the corresponding pixels was used. Generally, when the number is 0.7 or more, it is considered a healthy leaf.

[8] = tested on: soybean Phytophthora stem and root rot (Phytophthora sojae); conditions: treatment 7 days and 1 day before pathogen; for disease severity (score 0 to 5), soybean Phytophthora stem and root rot: 7 days after pathogen, water control group 4.1; for control value, soybean Phytophthora stem and root rot: from disease severity, vs untreated group
Method: as §2, §3

Botrytis cinerea = test: Pot experiment, tomato gray mold (diseased area, control value); assay type: in vivo; conditions: diseased area after 3 days, vs untreated group
[9] = valine 5 ml, 0.1%, root zone, twice

CC(C)C[C@H](N)C(=O)O [leucine]
induced resistance against Pst (disease severity, statistical significance vs water-treated control) [1]: induced the resistance against Pst

CC(C)[C@H](N)C(=O)O [valine]
disease severity (score 0 to 5) ([1]; Pst, 0.1% (0.95 mM) valine): 2.5 | disease severity (score 0 to 5) ([1]; Pst, 0.5% valine): 2.4 | overall disease severity in valine-treated groups ([1]; Pst, valine 0.5%, 0.1%, 0.05%, 0.01%, 0.005% and 0.001%, vs water-treated group): overall disease severity decreased | induced resistance against Pst (disease severity, statistical significance vs water-treated control) [1]: induced the resistance against Pst | number of Pst pathogens vs untreated control group (Pst pathogen): statistically significant reduction in the number of pathogens | PR1a expression (GUS activity in leaf area) [2]: GUS was expressed in the leaf area | control value, soybean Phytophthora stem and root rot (Phytophthora sojae): 15% | control value, cucumber bacterial leaf blight [3]: 17% | control value, lettuce bacterial soft rot [4]: 13% | control value, rice blast [5]: 13% | shoot weight, soybeans (average) (soybeans): 11 g | shoot weight heavier than untreated group, soybeans (soybeans; [9]): 2.4 g | shoot weight, cucumbers (average) (cucumbers): 34 g | shoot weight heavier than untreated group, cucumbers (cucumbers; [9]): 3 g | number of Pcc pathogen vs untreated control group (Pcc pathogen): reduction in the number of Pcc pathogen | number of Pcc pathogens vs BTH-treated group (Pcc pathogen): reduction in the number of pathogens, as compared to the BTH-treated group | disease severity (score 0 to 5), lettuce bacterial soft rot [6]: 2.2 | control value, lettuce bacterial soft rot [6]: 48% | healthy leaves (NDVI, hyperspectral camera) [7]: 60% | disease severity (score 0 to 5), soybean Phytophthora stem and root rot [8]: 1.1 | control value, soybean Phytophthora stem and root rot [8]: 73%

CSC(=O)c1cccc2nnsc12 [BTH, benzo(1,2,3)-thiadiazole-7-carbothioic acid S-methyl ester, reference compound]
disease severity (score 0 to 5) ([1]; Pst, 1 mM BTH): 3.7 | PR1a expression (GUS activity in leaf area) [2]: GUS was expressed in the leaf area | control value, soybean Phytophthora stem and root rot (Phytophthora sojae): 10% | control value, cucumber bacterial leaf blight [3]: 9% | control value, lettuce bacterial soft rot [4]: 10% | control value, rice blast [5]: 9% | control value, tomato gray mold (Botrytis cinerea): 20% | shoot weight, soybeans (average) (soybeans): 7.3 g | shoot weight, cucumbers (average) (cucumbers): 26 g | control value, lettuce bacterial soft rot [6]: 17% | control value, soybean Phytophthora stem and root rot [8]: 46%

CC[C@H](C)[C@H](N)C(=O)O [isoleucine]
induced resistance against Pst (disease severity, statistical significance vs water-treated control) [1]: induced the resistance against Pst | number of Pst pathogens vs untreated control group (Pst pathogen): statistically significant reduction in the number of pathogens | PR1a expression (GUS activity in leaf area) [2]: GUS was expressed in the leaf area | control value, soybean Phytophthora stem and root rot (Phytophthora sojae): 10% | control value, cucumber bacterial leaf blight [3]: 12% | control value, lettuce bacterial soft rot [4]: 8% | control value, rice blast [5]: 16% | number of Pcc pathogen vs untreated control group (Pcc pathogen): reduction in the number of Pcc pathogen | number of Pcc pathogens vs BTH-treated group (Pcc pathogen): reduction in the number of pathogens, as compared to the BTH-treated group | disease severity (score 0 to 5), lettuce bacterial soft rot [6]: 3 | control value, lettuce bacterial soft rot [6]: 29% | healthy leaves (NDVI, hyperspectral camera) [7]: 46% | disease severity (score 0 to 5), soybean Phytophthora stem and root rot [8]: 2.3 | control value, soybean Phytophthora stem and root rot [8]: 44%

O=C(O)[C@@H]1CCCN1 [proline]
induced resistance against Pst (disease severity, statistical significance vs water-treated control) [1]: induced the resistance against Pst | number of Pst pathogens vs untreated control group (Pst pathogen): statistically significant reduction in the number of pathogens | PR1a expression (GUS activity in leaf area) [2]: GUS was expressed in the leaf area | number of Pcc pathogen vs untreated control group (Pcc pathogen): reduction in the number of Pcc pathogen | number of Pcc pathogens vs BTH-treated group (Pcc pathogen): reduction in the number of pathogens, as compared to the BTH-treated group

N[C@@H](CC(=O)O)C(=O)O [aspartic acid]
induced resistance against Pst (disease severity, statistical significance vs water-treated control) [1]: induced the resistance against Pst

N[C@@H](Cc1c[nH]cn1)C(=O)O [histidine]
induced resistance against Pst (disease severity, statistical significance vs water-treated control) [1]: induced the resistance against Pst

N[C@@H](CCC(=O)O)C(=O)O [glutamic acid]
induced resistance against Pst (disease severity, statistical significance vs water-treated control) [1]: induced the resistance against Pst
